# Data as given in PubChem BioAssay AID1918999 (Molecular Pharmacology Branch, DTP, NCI, 2023).
# Test system: 556581-035-R-J1-PDC complex spheroid growth
# Experiment: Anticancer human tumor 556581-035-R-J1-PDC patient-derived ovarian carcinoma cell line growth inhibition [AhR]
# Conditions: for IC50: curve of first compound; for viability, T/C: stronger effect = lower value
# Procedure, shortened: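 Agents were dosed in half-log steps down from roughly clinical Cmax, or from 10 microM where Cmax was unknown, alone and with AhR antagonists. Read-out: percent test/control growth of tumor spheroids containing HUVEC and MSC stromal cells.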
# [1] = second compound 0.1 µM, first compound 0.0316 µM
# [2] = second compound 0.1 µM, first compound 0.1 µM
# [3] = second compound 0.1 µM, first compound 0.316 µM
# [4] = second compound 0.1 µM, first compound 1 µM
# [5] = second compound 0.1 µM, first compound 3.16 µM
# [6] = second compound 0.1 µM, first compound 10 µM
# [7] = second compound 0.316 µM, first compound 0.0316 µM
# [8] = second compound 0.316 µM, first compound 0.1 µM
# [9] = second compound 0.316 µM, first compound 0.316 µM
# [10] = second compound 0.316 µM, first compound 1 µM
# [11] = second compound 0.316 µM, first compound 3.16 µM
# [12] = second compound 0.316 µM, first compound 10 µM
# [13] = second compound 1 µM, first compound 0.0316 µM
# [14] = second compound 1 µM, first compound 0.1 µM
# [15] = second compound 1 µM, first compound 0.316 µM
# [16] = second compound 1 µM, first compound 1 µM
# [17] = second compound 1 µM, first compound 3.16 µM
# [18] = second compound 1 µM, first compound 10 µM
# [19] = second compound 3.16 µM, first compound 0.0316 µM
# [20] = second compound 3.16 µM, first compound 0.1 µM
# [21] = second compound 3.16 µM, first compound 0.316 µM
# [22] = second compound 3.16 µM, first compound 1 µM
# [23] = second compound 3.16 µM, first compound 3.16 µM
# [24] = second compound 3.16 µM, first compound 10 µM
# [25] = second compound 10 µM, first compound 0.0316 µM
# [26] = second compound 10 µM, first compound 0.1 µM
# [27] = second compound 10 µM, first compound 0.316 µM
# [28] = second compound 10 µM, first compound 1 µM
# [29] = second compound 10 µM, first compound 3.16 µM
# [30] = second compound 10 µM, first compound 10 µM
# 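For viability, T/C in this document: compound exposure lasted 7 days; 100% = DMSO vehicle control growth.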
Structure (SMILES),IC50 (second compound 0.1 µM),IC50 (second compound 0.316 µM),IC50 (second compound 1 µM),IC50 (second compound 3.16 µM),IC50 (second compound 10 µM),"viability, T/C [1]","viability, T/C [2]","viability, T/C [3]","viability, T/C [4]","viability, T/C [5]","viability, T/C [6]","viability, T/C [7]","viability, T/C [8]","viability, T/C [9]","viability, T/C [10]","viability, T/C [11]","viability, T/C [12]","viability, T/C [13]","viability, T/C [14]","viability, T/C [15]",further results
Nc1ccccc1NC(=O)c1ccc(CNC(=O)OCc2cccnc2)cc1 + Cc1ccccc1N=Nc1ccc(NC(=O)c2ccnn2C)c(C)c1,2120 nM,2310 nM,2790 nM,2640 nM,3110 nM,101%,112%,87.2%,69.3%,40.8%,18.9%,110%,102%,93.7%,72.2%,41.1%,19.4%,110%,106%,92.7%,"viability, T/C [16]: 70%; viability, T/C [17]: 49%; viability, T/C [18]: 21.5%; viability, T/C [19]: 113%; viability, T/C [20]: 104%; viability, T/C [21]: 88.3%; viability, T/C [22]: 68.5%; viability, T/C [23]: 47.3%; viability, T/C [24]: 20.6%; viability, T/C [25]: 99.5%; viability, T/C [26]: 95.9%; viability, T/C [27]: 92.9%; viability, T/C [28]: 68.2%; viability, T/C [29]: 52.2%; viability, T/C [30]: 32.8%"
O=C(C=Cc1cccc(S(=O)(=O)Nc2ccccc2)c1)NO + Cc1ccccc1N=Nc1ccc(NC(=O)c2ccnn2C)c(C)c1,1200 nM,1340 nM,1280 nM,1130 nM,1540 nM,99.8%,113%,87%,50.8%,28.4%,4.1%,106%,92.7%,91.9%,57.1%,24.9%,4.53%,93.9%,107%,91.7%,"viability, T/C [16]: 53.2%; viability, T/C [17]: 27.7%; viability, T/C [18]: 6.45%; viability, T/C [19]: 96.4%; viability, T/C [20]: 90.5%; viability, T/C [21]: 77.7%; viability, T/C [22]: 51.4%; viability, T/C [23]: 27.1%; viability, T/C [24]: 5.72%; viability, T/C [25]: 86.2%; viability, T/C [26]: 83.2%; viability, T/C [27]: 79.8%; viability, T/C [28]: 61%; viability, T/C [29]: 30.9%; viability, T/C [30]: 7.96%"
O=C(c1cc(Cc2n[nH]c(=O)c3ccccc23)ccc1F)N1CCN(C(=O)C2CC2)CC1 + Cc1ccccc1N=Nc1ccc(NC(=O)c2ccnn2C)c(C)c1,> 10000 nM,> 10000 nM,> 10000 nM,> 10000 nM,> 10000 nM,100%,92.5%,89.2%,95%,78.3%,76.1%,103%,88.2%,87.8%,97.3%,87.8%,72.3%,92.7%,96.8%,93.3%,"viability, T/C [16]: 99.5%; viability, T/C [17]: 93.3%; viability, T/C [18]: 76.6%; viability, T/C [19]: 89%; viability, T/C [20]: 93.7%; viability, T/C [21]: 84.2%; viability, T/C [22]: 80.9%; viability, T/C [23]: 82.4%; viability, T/C [24]: 77.5%; viability, T/C [25]: 78.2%; viability, T/C [26]: 82.3%; viability, T/C [27]: 82.5%; viability, T/C [28]: 82.6%; viability, T/C [29]: 82.4%; viability, T/C [30]: 74.8%"
